Source: ChEMBL document CHEMBL3817824, “Synthesis and biological evaluation of new [1,2,4]triazolo[4,3-a]pyridine derivatives as potential c-Met inhibitors” (Bioorg Med Chem, 2016)
Activity calls are given as the source filed them. The calls are words filed in the database; no cut-off is given here.

Key:
[1] = biological target: Hepatocyte growth factor receptor (Homo sapiens, UniProt P08581); assay: Inhibition of c-Met (unknown origin) incubated for 1 hr by spectrophotometric analysis
[2] = Cytotoxicity against human SNU5 cells assessed as reduction in cell survival incubated for 3 days by cell titre-glo assay; details: SNU-5, 72 h
[3] = test system: NCI-H1993; assay: Antitumor activity against human NCI-H1993 cells xenografted in nude BALB/c mouse assessed as inhibitory rate at 30 mg/kg, ig measured twice every week; type: functional; details: NCI-H1993, po, read-out: TGI
[4] = test system: Mus musculus; assay: Toxicity in nude BALB/c mouse assessed as clinical pathologies at 15 to 225 mg/kg, ig qd for treated for 28 days followed by rehabiliation for 28 days measured on day 56 relative to vehicle control; type: organism-based; details: in vivo, po, 672 h
[5] = Antitumor activity against human MKN45 cells xenografted in nude BALB/c mouse assessed as inhibitory rate at 30 mg/kg, ig measured twice every week; type: functional; details: MKN-45, po, read-out: TGI
[6] = Toxicity in ig dosed nude BALB/c mouse administered as qd treated for 28 days followed by rehabilitation for 28 days; type: organism-based; details: in vivo, po
[7] = test system: Mus musculus; assay: Toxicity in nude BALB/c mouse assessed as effect on body weight at 15 to 225 mg/kg, ig qd for treated for 28 days followed by rehabiliation for 28 days measured during compound dosing and rehabilitation period relative to vehicle control; type: organism-based; details: in vivo, po, 672 h
[8] = test system: Mus musculus; assay: Acute toxicity in nude BALB/c mouse assessed as clinical pathologies at 300 to 600 mg/kg, ig qd after 28 days; type: organism-based; details: in vivo, po, 672 h
[9] = Antitumor activity against human MKN45 cells xenografted in nude BALB/c mouse assessed as inhibitory rate at 10 mg/kg, ig measured twice every week; type: functional; details: MKN-45, po, read-out: TGI
[10] = test system: NCI-H1993; assay: Antitumor activity against human NCI-H1993 cells xenografted in nude BALB/c mouse assessed as inhibitory rate at 60 mg/kg, ig measured twice every week; type: functional; details: NCI-H1993, po, read-out: TGI
[11] = test system: NCI-H1993; assay: Antitumor activity against human NCI-H1993 cells xenografted in nude BALB/c mouse assessed as inhibitory rate at 10 mg/kg, ig measured twice every week; type: functional
[12] = Acute toxicity in ig dosed nude BALB/c mouse administered as qd measured for 14 days; type: organism-based; details: in vivo, po
[13] = Antitumor activity against human MKN45 cells xenografted in nude BALB/c mouse assessed as inhibitory rate at 60 mg/kg, ig measured twice every week; type: functional; details: MKN-45, po, read-out: TGI
[14] = Apparent oral clearance in Sprague-Dawley rat at 5 mg/kg; type: ADME, organism-based; details: in vivo
[15] = biological target: RAC-alpha serine/threonine-protein kinase (Homo sapiens, UniProt P31749); details: Huh-7, 100 to 1000 nM
Description: Inhibition of AKT phosphorylation in human HuH7 cells at 100 to 1000 nM after 6 to 24 hrs by Western blot analysis

[16] = test system: Huh-7; assay: Inhibition of ERK phosphorylation in human HuH7 cells at 100 to 1000 nM after 6 to 24 hrs by Western blot analysis; type: cell-based
[17] = test system: MKN-45; assay: Antitumor activity against human MKN45 cells xenografted in ig dosed nude BALB/c mouse measured twice every week; type: functional, organism-based
[18] = test system: NCI-H1993; assay: Antitumor activity against human NCI-H1993 cells xenografted in ig dosed nude BALB/c mouse measured twice every week; type: functional, organism-based
[19] = Apparent volume of distribution during terminal phase in Sprague-Dawley rat at 5 mg/kg; type: ADME, organism-based; details: in vivo, read-out: Vz/F
[20] = Cmax in Sprague-Dawley rat at 5 mg/kg; type: ADME, organism-based; set-up: dose 5 mg/kg; details: in vivo
[21] = Mean residence time in Sprague-Dawley rat at 5 mg/kg; type: ADME, organism-based; details: in vivo
[22] = Half life in Sprague-Dawley rat at 5 mg/kg; type: ADME, organism-based; details: in vivo
[23] = AUC in Sprague-Dawley rat at 5 mg/kg; type: ADME, organism-based; details: in vivo
[24] = Cytotoxicity against human MHCC97L cells assessed as reduction in cell survival incubated for 3 days by cell titre-glo assay; type: functional, cell-based; details: 72 h
[25] = test system: NCI-N87; assay: Cytotoxicity against human NCI-N87 cells assessed as reduction in cell survival incubated for 3 days by cell titre-glo assay; type: functional, cell-based; details: NCI-N87, 72 h
[26] = Cytotoxicity against human HuH7 cells assessed as reduction in cell survival incubated for 3 days by cell titre-glo assay; type: functional, cell-based; details: Huh-7, 72 h
[27] = Cytotoxicity against human MHCC97H cells assessed as reduction in cell survival incubated for 3 days by cell titre-glo assay; type: functional, cell-based; details: 72 h
[28] = test system: NCI-H1975; assay: Cytotoxicity against human NCI-H1975 cells assessed as reduction in cell survival incubated for 3 days by cell titre-glo assay; type: functional, cell-based; details: NCI-H1975, 72 h
[29] = test system: NCI-H1993; assay: Cytotoxicity against human NCI-H1993 cells assessed as reduction in cell survival incubated for 3 days by cell titre-glo assay; type: functional, cell-based; details: NCI-H1993, 72 h
[30] = Cytotoxicity against human HCCLM3 cells assessed as reduction in cell survival incubated for 3 days by cell titre-glo assay; type: functional, cell-based; details: HCCLM3, 72 h
[31] = Cytotoxicity against human MKN45 cells assessed as reduction in cell survival incubated for 3 days by cell titre-glo assay; type: functional, cell-based; details: MKN-45, 72 h
[32] = test system: A549; assay: Cytotoxicity against human A549 cells assessed as reduction in cell survival incubated for 3 days by cell titre-glo assay; type: functional, cell-based; details: A549, 72 h

Which IC50 [1] does the source give for `CN1C(=O)COc2c1cnc1ccc(Sc3nnc4c(OC(F)F)cc(-c5cnn(C)c5)cn34)cc21` here?
The IC50 was over 1000 nM.

And the IC50 [2]?
The IC50 was over 1000 nM.

With `COCCN1C(=O)COc2c1cnc1ccc(Sc3nnc4ccc(-c5cnn(C)c5)cn34)cc21` as the molecule, how does the IC50 [2] read?
The IC50 was 19.1 nM.

Which IC50 [2] does the source give for `CN1C(=O)COc2c1cnc1ccc(Sc3nnc4ccc(-c5cnn(C)c5)cn34)cc21` here?
Its IC50 is 3 nM.

Which results are given for `CN1C(=O)COc2c1cnc1ccc(Sc3nnc4c(F)cc(-c5cnn(C)c5)cn34)cc21.CS(=O)(=O)O`?
inhibition in vivo at 30 mg/kg [3]: 19.5%; Activity [4]: Non-toxic; inhibition in vivo at 30 mg/kg [5]: 34.2%; NOAEL at 672 h [6]: 225 mg/kg/day; Activity [7]: Non-toxic; Activity [8]: Non-toxic; inhibition in vivo at 10 mg/kg [9]: 29.5%; inhibition in vivo at 60 mg/kg [10]: 24.9%; inhibition in vivo at 10 mg/kg ([11]; NCI-H1993, po, read-out: TGI): 24.4%; NOAEL at 336 h [12]: 600 mg/kg/day; inhibition in vivo at 60 mg/kg [13]: 61.4%; CL/F [14]: 0.68 mL/min/kg

With `Cn1cc(-c2cc(F)c3nnc(Sc4ccc5ncc6c(c5c4)OC[C@H]4CCCN64)n3c2)cn1` as the molecule, how does the IC50 [2] read?
Its IC50 is 29.2 nM.

For `Cn1cc(-c2ccc3nnc(Sc4ccc5ncc6c(c5c4)OCC(=O)N6)n3c2)cn1`, which IC50 [2] is on record?
The IC50 was 85.8 nM.

For `Cn1cc(-c2cc(F)c3nnc(Sc4ccc5ncc6c(c5c4)OC[C@@H]4CCCN64)n3c2)cn1`, which IC50 [2] is on record?
Its IC50 is 327 nM.

For `COCCN1C(=O)COc2c1cnc1ccc(Sc3nnc4c(F)cc(-c5cnn(C)c5)cn34)cc21`, which IC50 [2] is on record?
The IC50 was 4.5 nM.

Which IC50 [2] does the source give for `Cn1cc(-c2cc(F)c3nnc(Sc4ccc5ncc6c(c5c4)OCC(=O)N6)n3c2)cn1` here?
The IC50 was 17.8 nM.

Which IC50 [2] does the source give for `Cn1cc(-c2cc(F)c3nnc(Sc4ccc5ncc6c(c5c4)OCCN6C(=O)C4CC4)n3c2)cn1` here?
The IC50 was 12.3 nM.

What does the source list for `CN1C(=O)COc2c1cnc1ccc(Sc3nnc4c(F)cc(-c5cnn(C)c5)cn34)cc21`?
inhibition [15]: inactive; inhibition [16]: inactive; TGI [17]: Dose-dependent effect; TGI [18]: Dose-dependent effect

For `Cn1cc(-c2ccc3nnc(C(F)(F)c4ccc5ncccc5c4)n3n2)cn1` [JNJ-38877605], which Vd/F [19] is on record?
Its Vd/F is 1.48 L/kg.

And the Cmax [20]?
The Cmax was 2370 ng/mL.

What about the MRT [21] of the same molecule?
Its MRT is 4.9 h.

And the half-life [22]?
The half-life was 2.97 h.

What about the AUC [23] of the same molecule?
The AUC was 17300 ng·h/mL.

What about the CL/F [14] of the same molecule?
The CL/F was 5.81 mL/min/kg.

With `Cn1cc(-c2ccc3nnc(Sc4ccc5ncccc5c4)n3n2)cn1` [SGX-523] as the molecule, how does the IC50 [24] read?
Its IC50 is 18 nM.

What about the IC50 [25] of the same molecule?
The IC50 was over 10000 nM.

And the IC50 [26]?
Its IC50 is over 10000 nM.

What about the IC50 [27] of the same molecule?
The IC50 was 11 nM.

And the IC50 [28]?
Its IC50 is over 10000 nM.

And the IC50 [29]?
Its IC50 is 25 nM.

What about the IC50 [30] of the same molecule?
The IC50 was 24 nM.

And the IC50 [2]?
Its IC50 is 3.9 nM.

What about the inhibition in vivo at 10 mg/kg [9] of the same molecule?
Its inhibition in vivo at 10 mg/kg is 11.2%.

What about the TGI [11] of the same molecule?
Its TGI is “inactive”.

And the IC50 [31]?
Its IC50 is 15 nM.

What about the IC50 [32] of the same molecule?
Its IC50 is over 10000 nM.
